Test results: patent US20120204273A1, “COMPOSITIONS RELATING TO A PHOSPHOPROTEIN AND METHODS OF USE” (SANFORD-BURNHAM MEDICAL RESEARCH INSTITUTE, priority 2010, published 2012)
Residue numbers refer to the chain shown, from its start. In names and notes the source's numbering stands.

B1: HA-CDP138-5DA: HA-tagged CDP138 with D19A, D26A, D76A, D78A, D84A (protein, UniProt Q86YS7 1-1000, looked up, variant D19A D26A D76A D78A D84A)
C2 domain-containing protein 5: MPGKLKVKIVAGRHLPVMARASDLTAAFVEVKFGNTTFKTDVYLKSLNPQWNSEWFKFEVDDEDLQDEPLQITVLAHATYSANAAIGKVYIDIDPLLYSEAATVISGWFPIYDTIHGIRGEINVVVKVDLFNDLNRFRQSSCGVKFFCTTSIPKCYRAVIIHGFVEELVVNEDPEYQWIDRIRTPRASNEARQRLISLMSGELQRKIGLKVLEMRGNAVVGYLQCFDLEGESGLVVRAIGTACTLDKLSSPAAFLPACNSPSKEMKEIPFNEDPNPNTHSSGPSTPLKNQTYSFSPSKSYSRQSSSSDTDLSLTPKTGMGSGSAGKEGGPFKALLRQQTQSALEQREFPFFTLTAFPPGFLVHVGGVVSARSVKLLDRIHNPDEPETRDAWWAEIRQEIKSHAKALGCHAVVGYSESTSICEEVCILSASGTAAVLNPRFLQDGTVEGCLEQRLEENLPTRCGFCHIPYDELNMPFPAHLTYCYNCRKQKVPDVLFTTIDLPTDATVIGKGCLIQARLCRLKKKAQAEANATAISNLLPFMEYEVHTQLMNKLKLKGMNALFGLRIQITVGENMLMGLASATGVYLAALPTPGGIQIAGKTPNDGSYEQHISHMQKKINDTIAKNKELYEINPPEISEEIIGSPIPEPRQRSRLLRSQSESSDEVTELDLSHGKKDAFVLEIDDTDAMEDVHSLLTDVPPPSGFYSCNTEIMPGINNWTSEIQMFTSVRVIRLSSLNLTNQALNKNFNDLCENLLKSLYFKLRSMIPCCLCHVNFTVSLPEDELIQVTVTAVAITFDKNQALQTTKTPVEKSLQRASTDNEELLQFPLELCSDSLPSHPFPPAKAMTVEKASPVGDGNFRNRSAPPCANSTVGVVKMTPLSFIPGAKITKYLGIINMFFIRETTSLREEGGVSGFLHAFIAEVFAMVRAHVAALGGNAVVSYIMKQCVFMENPNKNQAQCLINVSGDAVVFVRESDLEVVSSQQPTTNCQSSCTEGEVTT
modifications: HA tag
notes: HA-tagged CDP138 with D19A, D26A, D76A, D78A, D84A
B2: HA-CDP138-S197A: HA-tagged CDP138 mutant lacking the Akt2 phosphorylation site Ser197 (protein, UniProt Q86YS7 1-1000, looked up, variant S197A)
C2 domain-containing protein 5: B1 C2 domain-containing protein 5 with A19D, A26D, A76D, A78D, A84D, S197A
modifications: HA tag
notes: HA-tagged CDP138 mutant lacking the Akt2 phosphorylation site Ser197

Experiments:
[1] = test system: 3T3-L1 adipocytes; assay: GSV-PM fusion in live adipocytes (IRAP-pHluorin, TIRF microscopy); type: cell-based, mouse; conditions: Akti1/2 5 μM for 1 h, insulin 100 nM 30 min
Excerpt: FIG. 3, panels A-C, show knockdown of CDP138 in live 3T3-L1 adipocytes inhibits insulin-stimulated membrane fusion between GLUT4 storage vesicles (GSV) and the PM, but not GLUT4-EGFP trafficking to the TIRF zone. (A): Schematic illustration of the molecular probes and TIRF microcopy-based live cell assays for GLUT4 trafficking and GSV-PM fusion. (B) and (C): The effect of CDP138 knockdown on insulin-stimulated IRAP-pHluorin insertion into the PM (B), and accumulation of GLUT4-EGFP in the TIRF zone (C). Adipocytes (day 4) were transfected by electroporation with plasmid DNA encoding IRAP-pHluorin or GLUT4-EGFP, together with either the scrambled siRNA or smartPool siRNA against mouse 5730419I09Rik. Cells were reseeded on glass-bottomed dishes for 72 hrs, serum starved for 2 hr then stimulated with 100 nM insulin for 30 min. Analyses were performed in a cell warmer adapted for a Nikon TiE with fully motorized combined dual laser (488 and 561 nm). Images were acquired every 3 min immediately after addition of insulin and analyzed as described in the Supplementary Experimental Procedures. Perfect focus system and multiple points capture program (NIS Element) were used to acquire images from multiple positively transfected cells at each time point. […]
Total Internal Reflection Fluorescence (TIRF) Microscopy: Nikon (Melville, N.Y.) TI-TIRF-E, which was based on the objective lens method, was used to perform all the TIRF experiments. […] Positively transfected adipocytes were identified, and the insulin-stimulated IRAP vesicle-PM fusion events or GLUT4-EGFP trafficking to the TIRF zone were recorded every 3 min for a 30 min period using Nikon Eclipse-Ti TIRF microscope. […]
(§1) Image Analysis and Quantification: TIRF and wide field fluorescence microscopy were performed using a Nikon inverted microscope (Melville, N.Y.) with a cooled charge-coupled device camera. […]

[2] = test system: 3T3-L1 adipocytes; assay: myc-GLUT4-GFP translocation to the cell surface; type: cell-based, mouse; conditions: for effect on insulin-stimulated myc-GLUT4-GFP translocation to cell surface: fixed cells, Akti1/2 50 μM for 1 hr, insulin 100 nM 30 min; for effect of overexpression on insulin-stimulated myc-GLUT4-GFP translocation (TIRF myc / Epi GFP): insulin 100 nM, 30 min
Description: FIG. 2, panels A-C show knockdown of CDP138 in 3T3-L1 adipocytes inhibits insulin-stimulated glucose transport (A) and myc-GLUT4-GFP translocation (B), but not endogenous GLUT4 movement to the periphery detected in TIRF zone (C). (A): Differentiated adipocytes at day 5 were transfected with siRNAs against mouse 5730419I09Rik or the scrambled siRNA (Scr) as described earlier (Jiang et al., 2003) for 60 hrs, then serum starved overnight. Cells were then treated with or without insulin (1 nM and 100 nM) for 30 min for the glucose uptake assay, or 15 min for immunoblotting of CDP138, pAkt, Akt and β-actin. Glucose transport data are presented as mean±SD of 4 independent experiments. *P<0.05 vs Scr Insulin (1 nM) group; **P<0.01 vs Scr Insulin (100 nM) group. (B): Day 5 adipocytes were transfected with siRNAs and myc-GLUT4-GFP for 60 hrs and then serum starved overnight. Cells were then treated with insulin (1 nM) for 20 min. Cell surface Myc-GLUT4-GFP was detected with anti-myc monoclonal Ab (9E10) and Alexa Fluor 568-labeled goat anti-mouse IgG in non-permeablized cells. The Myc signal and GFP signal were quantified as previously described (Jiang et al., 2002). Data presented are representative microscopic images and mean±SD of about 160 GFP-positive cells in each group from three independent experiments. **P<0.01 vs Scr Insulin (1 nM) group. […] GLUT4 was detected with a goat anti-GLUT4 Ab and Alexa Fluor 488-conjugated donkey anti-goat Ab in permeabilized cells. Top and middle panels show 100 nm TIRF zone and representative GLUT4 TIRFM images, respectively. Data are mean±SD of 3 independent experiments. **P<0.01 vs Scr Insulin groups.
GLUT4 translocation detection with wide field fluorescence and TIRF microscopy: Both wide field and TIRF microscopy were used to detect myc-GLUT4-GFP translocation to the cell surface as previously described (Jiang et al., 2002) and herein.
To test the effect of RNAi-induced gene specific knockdown of CDP138 or overexpression of CDP138 mutants on GLUT4 translocation, siRNAs or CDP138 constructs were transfected into adipocytes together with myc-GLUT4-GFP by electroporation as previously described (Jiang et al, 2003). […] Cells were washed with cold PBS, fixed with 4% formaldehyde and immunostained. Briefly, for siRNA study, the cell surface Myc-GLUT4-GFP was visualized with mouse anti-Myc Ab (9E10) and AlexaFluoro568-labeled goat anti-mouse secondary Ab (Invitrogen) in PBS containing 1% FBS. After washing, the coverslip were mounted with Prolong antifade reagent (Invitrogen, Eugene Oreg.). Fluorescence microscopy was carried as described below. Then, images were acquired with wide field microscopy as described below. For the study with overexpressed HAtagged CDP138 constructs, the cell surface Myc-GLUT4-GFP was visualized with rabbit anti-Myc Ab (Cell signaling, Inc) and AlexaFluoro568-labeled goat anti-rabbit secondary Ab (InVitrogen) in PBS containing 1% FBS. Cells were further permeabilized with PSB containing 0.5% Tween-20, and HA-tagged protein was detected with a mouse anti-HA epitope primary Ab followed by AlexaFluoro-350-labelled goat anti-mouse IgG. Insulin-induced myc-GLUT4 accumulation (AlexaFluoro-568 signal) within the evanescence excitation field (100 nm from dorsal membrane) in transfected adipocytes was measured with a Nikon Eclipse-Ti microscope equipped with a CoolSNAP HQ2 camera and laser scanning TIRF capacity. Total GLUT4-GFP signals and […] Alexa Fluoro-350 signals were acquired with wide field imaging to identify double-transfected cells. The ratio of myc-GLUT4 signal in the TIRF zone to the total Epi-GFP signal in wide field was used as a measure of GLUT4 translocation to the cell surface.
as §1

| Molecule | effect on insulin-induced GSV-PM membrane fusion [1] | effect on insulin-induced GSV-PM membrane fusion ([1]; listed as Akti1/2) | effect on insulin-stimulated myc-GLUT4-GFP translocation to cell surface [2] | effect on insulin-stimulated myc-GLUT4-GFP translocation to cell surface ([2]; listed as Akti1/2) | effect of overexpression on insulin-stimulated myc-GLUT4-GFP translocation (TIRF myc / Epi GFP) [2] | effect of overexpression on insulin-stimulated myc-GLUT4-GFP translocation (TIRF myc / Epi GFP) ([2]; listed as S197A) |
| --- | --- | --- | --- | --- | --- | --- |
| O=c1[nH]c2ccccc2n1C1CCN(Cc2ccc(-c3nc4cc5nc[nH]c5cc4nc3-c3ccccc3)cc2)CC1 [Akti, reference compound] | significantly inhibited | blocks | significantly inhibited | blocks |  |  |
| B1 |  |  |  |  | inhibited |  |
| B2 |  |  |  |  | inhibited | blocked |
